Measurements reported in patent US20100240641A1, “Aldosterone Synthase and/or 11B-hydroxylase Inhibitors” (priority 2006, published 2010).

Assays:
aldosterone synthase = target: T1, aldosterone synthase (Homo sapiens, UniProt P19099); experiment: In vitro aldosterone synthase inhibition: aldosterone production in Ang II-stimulated NCI-H295R cells; type: cell-based; details: read-out: AS IC50
T1 construct: host or cells: NCI-H295R
T1 sequence (P19099 25-503): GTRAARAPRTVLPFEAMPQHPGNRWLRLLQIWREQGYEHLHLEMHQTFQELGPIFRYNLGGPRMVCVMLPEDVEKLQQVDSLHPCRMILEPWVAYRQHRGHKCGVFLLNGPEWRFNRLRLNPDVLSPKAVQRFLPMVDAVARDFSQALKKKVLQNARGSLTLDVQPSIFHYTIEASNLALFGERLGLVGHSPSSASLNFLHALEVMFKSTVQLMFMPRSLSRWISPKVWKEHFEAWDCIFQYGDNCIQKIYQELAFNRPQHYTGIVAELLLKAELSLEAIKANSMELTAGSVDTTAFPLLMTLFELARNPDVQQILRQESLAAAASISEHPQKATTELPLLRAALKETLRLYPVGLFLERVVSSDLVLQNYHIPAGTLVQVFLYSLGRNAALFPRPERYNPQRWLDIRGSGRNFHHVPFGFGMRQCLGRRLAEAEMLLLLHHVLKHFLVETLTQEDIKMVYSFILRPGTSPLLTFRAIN
Excerpt: In particular, the aldosterone synthase inhibitory activities in vitro can be determined by the following assay.
Human adrenocortical carcinoma NCI-H295R cell line is obtained from American Type Culture Collection (Manassas, Va.). Insulin/transferrin/selenium (ITS)-A supplement (100×), DMEM/F-12, antibiotic/antimycotic (100×), and fetal calf serum (FCS) are purchased from Gibco (Grand Island, N.Y.). Anti-mouse PVT scintillation proximity assay (SPA) beads and NBS 96-well plates are obtained from Amersham (Piscataway, N.J.) and Corning (Acton, Mass.), respectively. Solid black 96-well flat bottom plates were purchased from Costar (Corning; NY). Aldosterone and angiotensin (Ang II) are purchased from Sigma (St. Louis, Mo.). D[1,2,6,7-^3H(N)]aldosterone was acquired from PerkinElmer (Boston, Mass.). Nu-serum was a product of BD Biosciences (Franklin Lakes, N.J.). The NADPH regenerating system, dibenzylfluorescein (DBF), and human aromatase Supersomes® are obtained from Gentest (Woburn, Mass.). […]
Measurement of aldosterone activity can also be performed using a 96-well plate format. […] The amount of aldosterone in each sample is calculated by comparing with a standard curve generated using known quantities of the hormone.

CYP11B1 = target: T2, CYP11B1 (Homo sapiens, UniProt P15538); experiment: In vitro CYP11B1 inhibition: steroid release from NCI-H295R cells; type: cell-based; details: 10 nM compound, read-out: 11B1 % Inhibition @ 10 nM
T2 construct: Thus, the NCl-H295R cells have Cyp11 B1 (steroid 11 p-hydroxylase); host or cells: NCI-H295R
T2 sequence (P15538 25-503): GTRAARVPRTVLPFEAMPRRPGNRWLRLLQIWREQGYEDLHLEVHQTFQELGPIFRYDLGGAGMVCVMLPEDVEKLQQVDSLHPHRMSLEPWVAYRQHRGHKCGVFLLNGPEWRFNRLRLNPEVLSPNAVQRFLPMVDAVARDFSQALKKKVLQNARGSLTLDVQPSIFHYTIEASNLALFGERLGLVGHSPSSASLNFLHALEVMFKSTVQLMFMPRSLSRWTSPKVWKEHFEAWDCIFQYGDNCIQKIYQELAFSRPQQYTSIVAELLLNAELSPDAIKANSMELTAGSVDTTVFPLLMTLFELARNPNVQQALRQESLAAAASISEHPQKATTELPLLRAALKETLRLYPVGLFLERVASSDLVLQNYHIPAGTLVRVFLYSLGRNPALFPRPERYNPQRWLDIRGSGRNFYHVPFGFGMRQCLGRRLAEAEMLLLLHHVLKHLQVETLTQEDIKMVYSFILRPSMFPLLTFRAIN
Excerpt: The in vitro inhibitory activities for CYP11B1 can be determined by the following assay.
The cell line NCI-H295R was originally isolated from an adrenocortical carcinoma and has been characterized in the literature through the stimulable secretion of steroid hormones and the presence of the enymes essential for steroidogenesis. Thus, the NCl-H295R cells have Cyp11 B1 (steroid 11 p-hydroxylase). The cells show the physiological property of zonally undifferentiated human foetal adrenocortical cells which, however, have the capacity to produce the steroid hormones which are formed in the three, phenotypically distinguishable zones in the adult adrenal cortex. […]
The excretion of aldosterone, cortisol, corticosterone and estradiol/estrone into the culture medium can be detected and quantified by commercially available, specific monoclonal antibodies in radioimmunoassays in accordance with the manufacturer's instructions.
Inhibition of the release of certain steroids can be used as a measure of the respective enzyme inhibition by the added test compounds. The dose-dependent inhibition of enzymic activity by a compound is calculated by means of an inhibition plot which is characterized by an IC50. […]

IC50 (aldosterone synthase) [µM]	inhibition at 0.01 µM (CYP11B1) [%]	Structure (SMILES)
0.012	–	CCC1(c2ccc(C#N)cc2OC)C(=O)N(Cc2ccc(Cl)cc2)Cc2cncn21 (stereo not drawn) [Compound 1, 4-[7-(4-Chloro-benzyl)-5-ethyl-6-oxo-5,6,7,8-tetrahydro-imidazo[1,5-a]pyrazin-5-yl]-3-methoxy-benzonitrile]
–	100	CCC1(c2ccc(C#N)cc2F)C(=O)N(Cc2ccc(F)cc2)Cc2cncn21 (stereo not drawn) [Compound 7, 4-[5-Ethyl-7-(4-fluoro-benzyl)-6-oxo-5,6,7,8-tetrahydro-imidazo[1,5-a]pyrazin-5-yl]-3-fluoro-benzonitrile]
–	98	CCC1(c2ccc(C)cc2OC)C(=O)N(Cc2ccc(F)cc2)Cc2cncn21 (stereo not drawn) [Compound 8, 5-(2-Methoxy-4-methyl-phenyl)-5-ethyl-7-(4-fluoro-benzyl)-7,8-dihydro-imidazo[1,5-a]pyrazin-6-one]
